Data taken from patent US20200354426A1 (MEDIMMUNE LIMITED, priority 2016, published 2020).
Where “and” joins values, the source holds several entries; their conditions need not be identical. Equal entries are not always repeated. Numbered stars: 1 amine (or outer) side, 2 acyl side, 3 side chain; on linkers, the order of the positions; unused ones are H or OH. Side chains are listed from the residue outwards. Ends that are not written are not given here. Peptide text beside a SMILES is read from it. * marks the point of attachment. γGlu = O=C(O)[C@H](CCC(=O)[*:2])N[*:1]; Palmitoyl = CCCCCCCCCCCCCCCC(=O)*

Legend:
Human GLP1R = Human GLP1R (Homo sapiens, UniProt P43220); assay: cAMP activity assay in assay medium (assay 1); type: cell-based; parameters: expressed in transfected cells; details: assay medium; Table 4; read-out: hGLP1R EC50
Source text: (§1) Biological Activity of Peptides in Cell-Based cAMP Activity Assay (Assay 1):
(§2) All sample dilutions were made in duplicate.

Human GlucR = molecular target: T1, Human GlucR (Homo sapiens, UniProt P47871); assay: cAMP activity assay in assay medium (assay 1); type: cell-based; details: assay medium; Table 4; read-out: hGlucR EC50
T1 construct: expressed in transfected cells
Source text: as §1, §2

T1 sequence (P47871 26-477): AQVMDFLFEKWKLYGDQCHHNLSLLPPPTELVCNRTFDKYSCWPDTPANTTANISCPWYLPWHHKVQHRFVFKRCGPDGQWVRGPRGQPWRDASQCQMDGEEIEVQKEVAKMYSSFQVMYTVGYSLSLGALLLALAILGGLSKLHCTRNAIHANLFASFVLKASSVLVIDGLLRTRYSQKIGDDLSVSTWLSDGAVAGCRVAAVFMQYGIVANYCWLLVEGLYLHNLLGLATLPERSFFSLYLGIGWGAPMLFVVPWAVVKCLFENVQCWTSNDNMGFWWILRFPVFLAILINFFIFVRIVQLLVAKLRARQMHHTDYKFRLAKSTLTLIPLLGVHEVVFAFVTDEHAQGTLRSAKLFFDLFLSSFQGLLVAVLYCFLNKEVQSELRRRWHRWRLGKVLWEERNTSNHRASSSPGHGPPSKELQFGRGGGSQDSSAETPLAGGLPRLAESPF
Sequence of Human GLP1R (P43220 24-463): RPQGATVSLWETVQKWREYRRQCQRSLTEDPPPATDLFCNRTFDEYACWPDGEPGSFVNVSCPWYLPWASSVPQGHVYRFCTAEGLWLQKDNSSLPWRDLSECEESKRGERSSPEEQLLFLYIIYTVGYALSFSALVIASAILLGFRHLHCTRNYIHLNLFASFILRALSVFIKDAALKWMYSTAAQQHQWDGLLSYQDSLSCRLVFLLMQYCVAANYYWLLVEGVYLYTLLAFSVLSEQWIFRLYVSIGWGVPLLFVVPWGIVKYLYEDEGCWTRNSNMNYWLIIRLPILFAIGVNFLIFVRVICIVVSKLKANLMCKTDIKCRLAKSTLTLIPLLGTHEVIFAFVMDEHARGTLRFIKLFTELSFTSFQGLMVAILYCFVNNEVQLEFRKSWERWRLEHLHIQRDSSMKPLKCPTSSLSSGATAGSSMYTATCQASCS

| EC50 (Human GLP1R) [nM] | EC50 (Human GlucR) | Molecule |
| --- | --- | --- |
| 0.0857 | 0.0596 nM | CC(C)C[C@H](NC(=O)[C@H](Cc1ccc(O)cc1)NC(=O)[C@H](CCCCN)NC(=O)[C@H](CO)NC(=O)[C@H](Cc1ccc(O)cc1)NC(=O)[C@H](CC(=O)O)NC(=O)[C@H](CO)NC(=O)[C@@H](NC(=O)[C@H](Cc1ccccc1)NC(=O)[C@@H](NC(=O)CNC(=O)[C@H](CCC(N)=O)NC(=O)[C@H](CO)NC(=O)[C@@H](N)Cc1c[nH]cn1)[C@@H](C)O)[C@@H](C)O)C(=O)N[C@@H](CC(=O)O)C(=O)N[C@@H](CO)C(=O)N[C@@H](CCCNC(=N)N)C(=O)N[C@@H](CCCNC(=N)N)C(=O)N[C@@H](C)C(=O)N[C@@H](CCC(N)=O)C(=O)N[C@@H](CC(=O)O)C(=O)N[C@@H](Cc1ccccc1)C(=O)N[C@H](C(=O)N[C@@H](CCC(N)=O)C(=O)N[C@@H](Cc1c[nH]c2ccccc12)C(=O)N[C@@H](CC(C)C)C(=O)N[C@H](C(=O)N[C@@H](CCCNC(=N)N)C(=O)NCC(=O)NCC(=O)N[C@@H](CO)C(=O)NCC(=O)N[C@@H](CO)C(=O)NCC(=O)N[C@@H](CO)C(=O)NCC(N)=O)C(C)C)C(C)C [g402] |
| 2.45 | 0.0392 nM | CCCCCCCCCCCCCCCC(=O)N[C@@H](CCC(=O)NCCCC[C@H](NC(=O)[C@H](C)NC(=O)[C@H](CCCNC(=N)N)NC(=O)[C@H](CCCNC(=N)N)NC(=O)[C@H](CO)NC(=O)[C@H](CC(=O)O)NC(=O)[C@H](CC(C)C)NC(=O)[C@H](Cc1ccc(O)cc1)NC(=O)[C@H](CCCCN)NC(=O)[C@H](CO)NC(=O)[C@H](Cc1ccc(O)cc1)NC(=O)[C@H](CC(=O)O)NC(=O)[C@H](CO)NC(=O)[C@@H](NC(=O)[C@H](Cc1ccccc1)NC(=O)[C@@H](NC(=O)CNC(=O)[C@H](CCC(N)=O)NC(=O)[C@H](CO)NC(=O)[C@@H](N)Cc1c[nH]cn1)[C@@H](C)O)[C@@H](C)O)C(=O)N[C@@H](CC(=O)O)C(=O)N[C@@H](Cc1ccccc1)C(=O)N[C@H](C(=O)N[C@@H](CCC(N)=O)C(=O)N[C@@H](Cc1c[nH]c2ccccc12)C(=O)N[C@@H](CC(C)C)C(=O)N[C@@H](CCC(=O)O)C(=O)N[C@@H](C)C(=O)NCC(=O)NCC(N)=O)C(C)C)C(=O)O [g744] |
| 7.4 | 3.83 nM | CCCCCCCCCCCCCCCC(=O)N[C@@H](CCC(=O)NCCCC[C@H](NC(=O)[C@H](CO)NC(=O)[C@H](Cc1ccc(O)cc1)NC(=O)[C@H](CC(=O)O)NC(=O)[C@H](CO)NC(=O)[C@@H](NC(=O)[C@H](Cc1ccccc1)NC(=O)[C@@H](NC(=O)CNC(=O)[C@H](CCC(N)=O)NC(=O)CNC(=O)[C@@H](N)Cc1c[nH]cn1)[C@@H](C)O)[C@@H](C)O)C(=O)N[C@@H](Cc1ccc(O)cc1)C(=O)N[C@@H](CC(C)C)C(=O)N[C@@H](CC(=O)O)C(=O)N[C@@H](CO)C(=O)N[C@@H](CCC(=O)O)C(=O)N[C@@H](CCCNC(=N)N)C(=O)N[C@@H](C)C(=O)N[C@@H](CCC(N)=O)C(=O)N[C@@H](CC(=O)O)C(=O)N[C@@H](Cc1ccccc1)C(=O)N[C@H](C(=O)N[C@@H](CCC(N)=O)C(=O)N[C@@H](Cc1c[nH]c2ccccc12)C(=O)N[C@@H](CC(C)C)C(=O)N[C@@H](CCC(=O)O)C(=O)N[C@@H](CCCNC(=N)N)C(=O)NCC(=O)NCC(N)=O)C(C)C)C(=O)O [g701] (H-HGQGTFTSDYSK([γGlu-Palmitoyl])YLDSERAQDFVQWLERGG-NH2; N-terminus assumed) |
| 1.14 | 9.04 nM | CCCCCCCCCCCCCCCC(=O)NCCCC[C@H](NC(=O)[C@H](CO)NC(=O)[C@H](CO)NC(=O)CNC(=O)CNC(=O)[C@H](CO)NC(=O)[C@H](CO)NC(=O)CNC(=O)CNC(=O)[C@H](CCCNC(=N)N)NC(=O)[C@@H](NC(=O)[C@H](CC(C)C)NC(=O)[C@H](Cc1c[nH]c2ccccc12)NC(=O)[C@H](CCC(N)=O)NC(=O)[C@@H](NC(=O)[C@H](Cc1ccccc1)NC(=O)[C@H](CC(=O)O)NC(=O)[C@H](CCC(N)=O)NC(=O)[C@H](C)NC(=O)[C@H](CCCNC(=N)N)NC(=O)[C@H](CCCNC(=N)N)NC(=O)[C@H](CO)NC(=O)[C@H](CC(=O)O)NC(=O)[C@H](CC(C)C)NC(=O)[C@H](Cc1ccc(O)cc1)NC(=O)[C@H](CCCCN)NC(=O)[C@H](CO)NC(=O)[C@H](Cc1ccc(O)cc1)NC(=O)[C@H](CC(=O)O)NC(=O)[C@H](CO)NC(=O)[C@@H](NC(=O)[C@H](Cc1ccccc1)NC(=O)[C@@H](NC(=O)CNC(=O)[C@H](CCC(N)=O)NC(=O)[C@H](CO)NC(=O)[C@@H](N)Cc1c[nH]cn1)[C@@H](C)O)[C@@H](C)O)C(C)C)C(C)C)C(N)=O [g318] |
| 3.35 | 1.49 nM | CCCCCCCCCCCCCCCC(=O)N[C@@H](CCC(=O)NCCCC[C@H](NC(=O)[C@H](CO)NC(=O)[C@H](Cc1ccc(O)cc1)NC(=O)[C@H](CC(=O)O)NC(=O)[C@H](CO)NC(=O)[C@@H](NC(=O)[C@H](Cc1ccccc1)NC(=O)[C@@H](NC(=O)CNC(=O)[C@H](CCC(N)=O)NC(=O)[C@H](CO)NC(=O)[C@@H](N)Cc1c[nH]cn1)[C@@H](C)O)[C@@H](C)O)C(=O)N[C@@H](Cc1ccc(O)cc1)C(=O)N[C@@H](CC(C)C)C(=O)N[C@@H](CC(=O)O)C(=O)N[C@@H](CO)C(=O)N[C@@H](CCC(=O)O)C(=O)N[C@@H](CCCNC(=N)N)C(=O)N[C@@H](C)C(=O)N[C@@H](CCC(N)=O)C(=O)N[C@@H](CC(=O)O)C(=O)N[C@@H](Cc1ccccc1)C(=O)N[C@H](C(=O)N[C@@H](CCC(N)=O)C(=O)N[C@@H](Cc1c[nH]c2ccccc12)C(=O)N[C@@H](CC(C)C)C(=O)N[C@H](C(=O)N[C@@H](C)C(=O)NCC(=O)NCC(N)=O)C(C)C)C(C)C)C(=O)O [g702] (H-HSQGTFTSDYSK([γGlu-Palmitoyl])YLDSERAQDFVQWLVAGG-NH2; N-terminus assumed) |
| 0.0854 | 0.919 nM and 0.92 nM | CCCCCCCCCCCCCCCC(=O)N[C@@H](CCC(=O)NCCCC[C@H](NC(=O)[C@H](CO)NC(=O)[C@H](CC(=O)O)NC(=O)[C@H](CC(C)C)NC(=O)[C@H](Cc1ccc(O)cc1)NC(=O)[C@H](CCCCN)NC(=O)[C@H](CO)NC(=O)[C@H](Cc1ccc(O)cc1)NC(=O)[C@H](CC(=O)O)NC(=O)[C@H](CO)NC(=O)[C@@H](NC(=O)[C@H](Cc1ccccc1)NC(=O)[C@@H](NC(=O)CNC(=O)[C@H](CCC(N)=O)NC(=O)CNC(=O)[C@@H](N)Cc1c[nH]cn1)[C@@H](C)O)[C@@H](C)O)C(=O)N[C@@H](CCCNC(=N)N)C(=O)N[C@@H](C)C(=O)N[C@@H](C)C(=O)N[C@@H](CC(=O)O)C(=O)N[C@@H](Cc1ccccc1)C(=O)N[C@H](C(=O)N[C@@H](C)C(=O)N[C@@H](Cc1c[nH]c2ccccc12)C(=O)N[C@@H](CC(C)C)C(=O)N[C@H](C(=O)N[C@@H](C)C(=O)NCC(=O)NCC(N)=O)C(C)C)C(C)C)C(=O)O [g736] (H-HGQGTFTSDYSKYLDSK([γGlu-Palmitoyl])RAADFVAWLVAGG-NH2; N-terminus assumed) |
| 0.0534 | 0.352 nM | CCCCCCCCCCCCCCCC(=O)N[C@@H](CCC(=O)NCCCC[C@H](NC(=O)[C@H](CO)NC(=O)[C@H](CC(=O)O)NC(=O)[C@H](CC(C)C)NC(=O)[C@H](Cc1ccc(O)cc1)NC(=O)[C@H](CCCNC(=N)N)NC(=O)[C@H](CO)NC(=O)[C@H](Cc1ccc(O)cc1)NC(=O)[C@H](CC(=O)O)NC(=O)[C@H](CO)NC(=O)[C@@H](NC(=O)[C@H](Cc1ccccc1)NC(=O)[C@@H](NC(=O)CNC(=O)[C@H](CCC(N)=O)NC(=O)CNC(=O)[C@@H](N)Cc1c[nH]cn1)[C@@H](C)O)[C@@H](C)O)C(=O)N[C@@H](CCCNC(=N)N)C(=O)N[C@@H](C)C(=O)N[C@@H](CCCNC(=N)N)C(=O)N[C@@H](CC(=O)O)C(=O)N[C@@H](Cc1ccccc1)C(=O)N[C@H](C(=O)N[C@@H](CCC(=O)O)C(=O)N[C@@H](Cc1c[nH]c2ccccc12)C(=O)N[C@@H](CC(C)C)C(=O)N[C@H](C(=O)N[C@@H](C)C(=O)NCC(=O)NCC(N)=O)C(C)C)C(C)C)C(=O)O [g720] (H-HGQGTFTSDYSRYLDSK([γGlu-Palmitoyl])RARDFVEWLVAGG-NH2; N-terminus assumed) |
| 2.63 | – | CC(C)C[C@H](NC(=O)[C@H](Cc1ccc(O)cc1)NC(=O)[C@H](CCCCN)NC(=O)[C@H](CO)NC(=O)[C@H](Cc1ccc(O)cc1)NC(=O)[C@H](CC(=O)O)NC(=O)[C@H](CO)NC(=O)[C@@H](NC(=O)[C@H](Cc1ccccc1)NC(=O)[C@@H](NC(=O)CNC(=O)[C@H](CCC(N)=O)NC(=O)[C@H](CO)NC(=O)[C@@H](N)Cc1c[nH]cn1)[C@@H](C)O)[C@@H](C)O)C(=O)N[C@@H](CC(=O)O)C(=O)N[C@@H](CO)C(=O)N[C@@H](CCCNC(=N)N)C(=O)N[C@@H](CCCNC(=N)N)C(=O)N[C@@H](C)C(=O)N[C@@H](CCC(N)=O)C(=O)N[C@@H](CC(=O)O)C(=O)N[C@@H](Cc1ccccc1)C(=O)N[C@H](C(=O)N[C@@H](CCC(N)=O)C(=O)N[C@@H](Cc1c[nH]c2ccccc12)C(=O)N[C@@H](CC(C)C)C(=O)N[C@H](C(=O)N[C@@H](CCCNC(=N)N)C(=O)NCC(=O)NCC(=O)N[C@@H](CO)C(=O)N[C@@H](CO)C(=O)NCC(=O)NCC(=O)N[C@@H](CO)C(=O)N[C@@H](CO)C(=O)N[C@@H](CCCCN)C(N)=O)C(C)C)C(C)C [g317] |
| – | 0.0103 nM | CC(C)C[C@H](NC(=O)[C@H](Cc1ccc(O)cc1)NC(=O)[C@H](CCCCN)NC(=O)[C@H](CO)NC(=O)[C@H](Cc1ccc(O)cc1)NC(=O)[C@H](CC(=O)O)NC(=O)[C@H](CO)NC(=O)[C@@H](NC(=O)[C@H](Cc1ccccc1)NC(=O)[C@@H](NC(=O)CNC(=O)[C@H](CCC(N)=O)NC(=O)[C@H](CO)NC(=O)[C@@H](N)Cc1c[nH]cn1)[C@@H](C)O)[C@@H](C)O)C(=O)N[C@@H](CC(=O)O)C(=O)N[C@@H](CO)C(=O)N[C@@H](CCCNC(=N)N)C(=O)N[C@@H](CCCNC(=N)N)C(=O)N[C@@H](C)C(=O)N[C@@H](CCC(N)=O)C(=O)N[C@@H](CC(=O)O)C(=O)N[C@@H](Cc1ccccc1)C(=O)N[C@H](C(=O)N[C@@H](CCC(N)=O)C(=O)N[C@@H](Cc1c[nH]c2ccccc12)C(=O)N[C@@H](CC(C)C)C(=O)N[C@H](C(=O)N[C@@H](CCCNC(=N)N)C(=O)NCC(=O)NCC(=O)NCC(=O)NCC(=O)NCC(=O)NCC(=O)N[C@@H](CCCCN)C(N)=O)C(C)C)C(C)C [g325] |

| Molecule | EC50 (Human GLP1R) [nM] | EC50 (Human GlucR) |
| --- | --- | --- |
| HSQGTFTSDYSKYLDSRRAQDFVQWLVRGGPSSGAPPPSK-NH2 [g319] | 0.0361 | 0.0104 nM |
